Six compounds from patent US20080119434A1, “Sir2a-based therapeutic and prophylactic methods” (The Trustees of Colubia University, priority 2001, published 2008) can be followed below.

One test has as its target T1, Sir2α (Mus musculus, UniProt Q923E4).
T1 construct: To construct Sir2α expression constructs, the full-length cDNA was subcloned from pET28a-Sir2α; Flag (N); made in house
T1 sequence (Q923E4 1-737): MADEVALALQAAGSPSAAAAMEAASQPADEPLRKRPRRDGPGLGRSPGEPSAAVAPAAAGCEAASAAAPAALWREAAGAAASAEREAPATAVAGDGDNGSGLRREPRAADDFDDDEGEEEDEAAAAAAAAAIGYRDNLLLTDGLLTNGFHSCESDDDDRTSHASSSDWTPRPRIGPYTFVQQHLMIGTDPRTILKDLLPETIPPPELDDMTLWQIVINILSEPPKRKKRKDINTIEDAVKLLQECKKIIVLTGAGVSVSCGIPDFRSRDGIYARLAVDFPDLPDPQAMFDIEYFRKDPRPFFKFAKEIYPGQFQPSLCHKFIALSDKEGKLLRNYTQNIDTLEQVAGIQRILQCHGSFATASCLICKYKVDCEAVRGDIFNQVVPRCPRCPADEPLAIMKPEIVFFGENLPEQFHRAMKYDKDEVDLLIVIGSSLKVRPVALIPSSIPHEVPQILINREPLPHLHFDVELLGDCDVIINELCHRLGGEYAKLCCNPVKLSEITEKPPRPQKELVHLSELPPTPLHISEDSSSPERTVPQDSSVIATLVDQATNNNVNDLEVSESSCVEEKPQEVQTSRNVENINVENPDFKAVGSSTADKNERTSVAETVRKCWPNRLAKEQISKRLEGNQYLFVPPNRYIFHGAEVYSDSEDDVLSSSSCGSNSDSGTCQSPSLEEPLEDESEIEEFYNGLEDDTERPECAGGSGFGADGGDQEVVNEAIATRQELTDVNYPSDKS
As to the kind of experiment: In vitro p53 deacetylation assay with purified Flag-tagged Sir2α. As to conditions: 10 ng Sir2α, 50 μM NAD, 60 min at 30° C.; TSA 500 nM, nicotinamide 5 mM, 3-AB 3 mM. The class given is biochemical. As to the method:
FIG. 2. TSA-insensitive deacetylation of p53 by mammalian Sir2α. (A) Colloidal blue staining of a SDS-PAGE gel containing protein Marker (lane 1), a control eluate from M2 loaded with untransfected cell extract (lane 2), and 100 ng of the highly purified Flag-tagged Sir2α recombinant protein (lane 3). (B) Deacetylation of p53 by Sir2α. […] NAD (50 μM) was also added in each reaction except lane 2. The proteins were analyzed by resolution on SDS-PAGE and autoradiography (upper) or Coomassie blue staining (lower). (C) Reduction of the steady-state levels of acetylated p53 by both mouse Sir2α and human SIRT1 expression. Western blot analysis of H1299 cell extracts from the cells cotransfected with p53 and p300 (lane 1), or in combination with Sir2α (lane 2), or in combination with hSIRT1 (lane 4), or Sir2α-355A (lane 3), or hSIRT1-363Y (lane 5), or hSIRT5 (lane 6), or PARP (lane 7) by acetylated p53-specific antibody (upper) or DO-1 for total p53 (lower). The highly conserved histidine residue at the core domain was replaced by alanine for mouse Sir2α (a.a. 355) Sir2α-355A), or replaced by tyrosine for human SIRT1 (a.a. 363) (hSIRT1-363Y). […] The acetylated p53 levels in the cells cotransfected with p53 and p300 (lanes 1, 3), or cotransfected with p53, p300 and Sir2α (lanes 2, 4).
FIG. 3. Abrogation of mammalian Sir2α mediated deacetylation of p53 by nicotinamide. (A) Sir2α-mediated deacetylation of p53 is inhibited by nicotinamide. […] The proteins were analyzed by resolution on SDS-PAGE and autoradiography (upper) or Coomassie blue staining (lower). […]
The Flag-tagged Sir2α cells were established and expanded in DMEM medium, and cell extracts were prepared essentially as previously described (Luo et al., 2000; Gu et al., 1999). […] The eluted proteins were resolved by a SDS-PAGE gel and analyzed by colloidal blue staining (Novex). […] The reactions were resolved on SDS-PAGE and analyzed by Coomassie blue staining and autoradiography.

The test system of test [1] is acetylated p53 in H460 cells. As to the kind of experiment: Acetylation levels of endogenous p53 in H460 cells during DNA damage response (western blot). As to conditions: for acetylation level of p53, agent added to etoposide and TSA: etoposide + TSA + agent vs etoposide + TSA, nicotinamide 5 mM. The class given is cell-based, human. The procedure:
FIG. 3. […] 2.5 μg of ^14C-labeled acetylated p53 (lane 1) was incubated with 10 ng of purified Sir2α and 50 μM NAD alone (lane 2), or in the presence of either 5 mM of nicotinamide (lane 3) or 3 mM of 3-AB (3-aminobenzamide) (lane 4) for 60 min at 30° C. The proteins were analyzed by resolution on SDS-PAGE and autoradiography (upper) or Coomassie blue staining (lower). […] The cell extracts from untreated cells (lane 1), or treated with ALLN (50 μM) were also included (lane 6).
After treatment, the cells were harvested for western blot analysis. The rabbit polyclonal antibody specific for p300-mediated acetylated p53-[α-p53(Ac)-C] was raised and purified against the acetylated human p53 C-terminal peptide [p53 (Ac)-C: H-S55GQSTSRH55LMF-OH (5=acetylated Lysine)] as described before (Luo et al., 2000). In the case of cotransfection assays testing for p53 acetylation levels, H1299 cells were transfected with 5 μg of CMV-p53 plasmid DNA, 5 μg of CMV-p300 plasmid DNA, and 10 μg of pcDNA3—Sir2α plasmid DNA as indicated. […] The cell extracts were resolved by either 8% or 4-20% SDS-PAGE gels (Novex) and analyzed by western blot with α-p53(Ac)-C and α-p53(DO-1).

In test [2] the test system is acetylated p53 in H1299 cells. Briefly: Acetylated p53 levels in H1299 cells cotransfected with p53 and p300 (western blot). The class given is cell-based, human. As to conditions: H1299 cells cotransfected with p53 and p300, 500 nM TSA vs not treated. The procedure: FIG. 2. TSA-insensitive deacetylation of p53 by mammalian Sir2α. (A) Colloidal blue staining of a SDS-PAGE gel containing protein Marker (lane 1), a control eluate from M2 loaded with untransfected cell extract (lane 2), and 100 ng of the highly purified Flag-tagged Sir2α recombinant protein (lane 3). (B) Deacetylation of p53 by Sir2α. […] NAD (50 μM) was also added in each reaction except lane 2. The proteins were analyzed by resolution on SDS-PAGE and autoradiography (upper) or Coomassie blue staining (lower). (C) Reduction of the steady-state levels of acetylated p53 by both mouse Sir2α and human SIRT1 expression. Western blot analysis of H1299 cell extracts from the cells cotransfected with p53 and p300 (lane 1), or in combination with Sir2α (lane 2), or in combination with hSIRT1 (lane 4), or Sir2α-355A (lane 3), or hSIRT1-363Y (lane 5), or hSIRT5 (lane 6), or PARP (lane 7) by acetylated p53-specific antibody (upper) or DO-1 for total p53 (lower). The highly conserved histidine residue at the core domain was replaced by alanine for mouse Sir2α (a.a. 355) Sir2α-355A), or replaced by tyrosine for human SIRT1 (a.a. 363) (hSIRT1-363Y). […]
(§1) After treatment, the cells were harvested for western blot analysis. […] The cell extracts were resolved by either 8% or 4-20% SDS-PAGE gels (Novex) and analyzed by western blot with α-p53(Ac)-C and α-p53(DO-1).
For orientation: Immunoblotting shows a protein as a band on a membrane.

For test [3], the system named is Sir2α-mediated deacetylation of endogenous p53 in MEF p53(+/+) cells. As to the kind of experiment: Sir2α-mediated deacetylation of endogenous p53 in pBabe-Sir2α infected MEF p53(+/+) cells (western blot). The settings on record: etoposide and TSA in combination with nicotinamide, 6 hr. The class given is cell-based, mouse. The procedure:
FIG. 3. Abrogation of mammalian Sir2α mediated deacetylation of p53 by nicotinamide. (A) Sir2α-mediated deacetylation of p53 is inhibited by nicotinamide. 2.5 μg of ^14C-labeled acetylated p53 (lane 1) was incubated with 10 ng of purified Sir2α and 50 μM NAD alone (lane 2), or in the presence of either 5 mM of nicotinamide (lane 3) or 3 mM of 3-AB (3-aminobenzamide) (lane 4) for 60 min at 30° C. The proteins were analyzed by resolution on SDS-PAGE and autoradiography (upper) or Coomassie blue staining (lower). (B) Enhancement of endogenous p53 acetylation levels by nicotinamide. […] (C) The Sir2α-mediated deacetylation of endogenous p53 was abrogated in the presence of nicotinamide. […] The cell extracts from untreated cells (lane 1), or treated with ALLN (50 μM) were also included (lane 6).
Furthermore, we examined the effect of Sir2α expression on endogenous levels of acetylated p53. […] We first examined the protein levels of p53 activation in response to DNA damage in these cells by western blot analysis.
as §1

For test [4], the system named is IMR-90 cells. Briefly: DNA damage-induced cell death by adriamycin in IMR-90 cells. The class given is cell-based, human. As to conditions: pBabe-hSIRT1-363Y infected vs mock infected IMR-90 cells, different concentrations of adriamycin, 48 hr.
Protocol: (§2) Both mock infected cells and pBabe-hSIRT1-363Y infected cells were either not treated (I and III) or treated with 50 μM H2O2 (II and IV) (E), or treated with different concentrations of adriamycin as indicated. 48 hr later, the cells were collected for analysis (D).
(§3) IMR-90 cells were infected with either a pBabe retrovirus empty vector or a pBabe retrovirus containing hSIRT1-363Y, and cultured for a week under pharmacological selection.
The test system of test [5] is IMR-90 cells.
Protocol: The cells were analyzed for apoptotic cells (subG1) according to DNA content (PI staining). […] Cells were either not treated (I) or treated with 100 μM H2O2 (II, III, IV) for 24 hr. […] Both mock infected cells and pBabe-Sir2α infected cells were either not treated (I and III) or treated with 200 μM H2O2 (II and IV). 24 hr later, the cells were photographed under a microscope.
as §2
IMR-90 cells were infected with either a pBabe retrovirus empty vector or a pBabe retrovirus containing Sir2α, and cultured for a week under pharmacological selection.
as §3
After one-week selection, the cells were either frozen for stock or immediately used for further analysis.

Where two headings read alike, the source gives them in different places. Non-standard residues stand in square brackets, D forms with d. Residues, ends and D or L forms follow the SMILES beside them. Nle = CCCC[C@H](N)C(=O)O

Regarding `CC(/C=C/C(=O)NO)=C\[C@@H](C)C(=O)c1ccc(N(C)C)cc1` [TSA, Trichostatin A], the “effect on Sir2α-mediated deacetylation of 14C-labeled acetylated p53” value (“effect … of 14C-labeled acetylated p53” below) at Sir2α is on record as “no apparent effect”. The “acetylation level of p53 during DNA damage response, agent added to etoposide” value in test [1] (6 hr, etoposide plus TSA (0.5 μM) vs etoposide alone) is given as “mild enhancement”. The “steady state level of acetylated p53” value in test [2] was “elevated”.
For the compound `NC(=O)c1cccnc1` [nicotinamide], the “effect … of 14C-labeled acetylated p53” value on Sir2α was “completely inhibited”. Further, in test [1] (6 hr), the “acetylation level of p53, agent added to etoposide and TSA” value is recorded as “super induction”. Besides, the “cellular levels of acetylated p53 induced by DNA damage” value in test [1] (etoposide plus nicotinamide vs etoposide alone) is given as “enhanced”. Moreover, the “effect on Sir2α-mediated deacetylation of endogenous p53” value in test [3] is recorded as “completely abrogated”.
With `COc1cccc2c1C(=O)c1c(O)c3c(c(O)c1C2=O)C[C@@](O)(C(=O)CO)C[C@@H]3O[C@H]1C[C@H](N)[C@H](O)[C@H](C)O1` [adriamycin], the “sensitivity to DNA damage-induced cell death” value with IMR-90 cells [4] is listed as “much more sensitive”.
In the case of `OO` [H2O2, hydrogen peroxide], in the test with IMR-90 cells [5] (mock (pBabe-vector) infected IMR-90 cells, 200 μM H2O2, 24 hr), the cells being killed result is listed as “more than 80%”. Also, in the test with IMR-90 cells [5] (mock infected IMR-90 cells, 50 μM H2O2), the “susceptibility to H2O2-induced cell death” value is recorded as “relatively resistant”. The cells surviving result with IMR-90 cells [5] (pBabe-Sir2α infected IMR-90 cells, 200 μM H2O2, 24 hr) is “about 70%”; in the test on IMR-90 cells [5] (pBabe-hSIRT1-363Y infected IMR-90 cells, 50 μM H2O2), “less than 30%”.
As to `NC(=O)c1cccc(N)c1` [3-AB, 3-aminobenzamide], the “effect … of 14C-labeled acetylated p53” value at Sir2α is reported as “no significant effect”. For the same compound, the “acetylation level of p53, agent added to etoposide and TSA” value in test [1] (6 hr) was “no effect”.
Turning to `CCCC[C@@H](C=O)NC(=O)[C@H](CC(C)C)NC(=O)[C@H](CC(C)C)NC(C)=O` [ALLN] (Ac-Leu-Leu-[Nle]-aldehyde), the “acetylation of p53, single agent vs untreated cells” value in test [1] (6 hr, etoposide 20 μM, ALLN 50 μM) is given as “no significant p53 acetylation was detected”.
